Results reported in patent publication US9695155B2, “Herbicidal substituted pyrimidinyloxy benzene compounds” (E. I. DU PONT DE NEMOURS AND COMPANY, priority 2013, dated 2017).

Columns and labels:
pigweed [1] = test: Test A preemergence; format: in vivo, Amaranthus retroflexus; details: 0 to 100 scale where 0 is no effect and 100 is complete control
In short: (§1)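 Visual injury scored 0–100 (100 = complete control) against untreated controls about 10 days after treatment in a greenhouse. Test chemicals, formulated with surfactant in non-phytotoxic solvent, were sprayed on soil preemergence or on 2-10 cm, one- to two-leaf plants postemergence.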

giant foxtail = test: Test A postemergence; format: in vivo, Setaria faberii; details: 0 to 100 scale where 0 is no effect and 100 is complete control
In short: as §1

corn = test: Test A postemergence; format: in vivo, Zea mays; details: 0 to 100 scale where 0 is no effect and 100 is complete control
In short: as §1

lambsquarters [2] = test: Test C preemergence; format: in vivo, Chenopodium album
In short: (§2)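 Plants were kept under greenhouse conditions for 13–15 days following spray. Pre-emergent application went to soil (loam–sand), post-emergent to foliage at 1–4 leaves. Evaluation: visual, percent control against untreated checks.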

yellow nutsedge = test: Test C preemergence; format: in vivo, Cyperus esculentus
In short: as §2

pigweed [3] = test: Test C preemergence; format: in vivo, Amaranthus retroflexus
In short: as §2

ragweed = test: Test C preemergence; format: in vivo, Ambrosia elatior
In short: as §2

waterhemp = test: Test C preemergence; format: in vivo, Amaranthus rudis
In short: as §2

galium = test: Test C postemergence; format: in vivo, Galium aparine
In short: as §2

lambsquarters [4] = test: Test C postemergence; format: in vivo, Chenopodium album
In short: as §2

morningglory = test: Test C postemergence; format: in vivo, Ipomoea coccinea
In short: as §2

kochia = test: Test C postemergence; format: in vivo, Kochia scoparia
In short: as §2

[5] = 16 g ai/ha, preemergence, scale 0 to 100 (0 no effect, 100 complete control)
[6] = 62 g ai/ha, preemergence, scale 0 (no effect) to 100 (complete control)
[7] = 125 g ai/ha, preemergence, scale 0 (no effect) to 100 (complete control)
[8] = Preemergence, 31 g ai/ha, scale 0 to 100, 0 no effect, 100 complete control
[9] = 16 g ai/ha, postemergence, 0 is no effect, 100 is complete control
[10] = 125 g ai/ha, postemergence, visual rating, scale 0 to 100 (0 no effect, 100 complete control)
[11] = Postemergence, 62 g ai/ha, scale 0 to 100 (0 no effect, 100 complete control)

Question: What does the source list for `Clc1cnc(Oc2cccc(Br)c2-n2cc(Br)nn2)nc1` [Compound 129]?
Answer: Plant response rating, Pigweed (pigweed [1]; 125 g ai/ha): 100; Pigweed plant response rating (pigweed [1]; 500 g ai/ha): 100; Foxtail, Giant plant response rating (giant foxtail; 125 g ai/ha): 90; Plant response rating, Foxtail, Giant (giant foxtail; 500 g ai/ha): 100; Corn plant response rating (corn; 125 g ai/ha): 30; Plant response rating, Corn (corn; 500 g ai/ha): 50; Lambsquarters plant response rating (lambsquarters [2]; [5]): 50; Lambsquarters plant response rating (lambsquarters [2]; [6]): 100; Lambsquarters plant response rating (lambsquarters [2]; [7]): 100; Plant response rating, Lambsquarters (lambsquarters [2]; [8]): 40; Nutsedge, Yellow plant response rating (yellow nutsedge; [5]): 0; Nutsedge, Yellow plant response rating (yellow nutsedge; [6]): 5; Nutsedge, Yellow plant response rating (yellow nutsedge; [7]): 25; Plant response rating, Nutsedge, Yellow (yellow nutsedge; [8]): 0; Pigweed plant response rating (pigweed [3]; [5]): 98; Pigweed plant response rating (pigweed [3]; [6]): 100; Pigweed plant response rating (pigweed [3]; [7]): 100; Plant response rating, Pigweed (pigweed [3]; [8]): 100; Ragweed plant response rating (ragweed; [5]): 0; Ragweed plant response rating (ragweed; [6]): 60; Ragweed plant response rating (ragweed; [7]): 85; Plant response rating, Ragweed (ragweed; [8]): 20; Waterhemp plant response rating (waterhemp; [5]): 100; Waterhemp plant response rating (waterhemp; [6]): 100; Waterhemp plant response rating (waterhemp; [7]): 100; Plant response rating, Waterhemp (waterhemp; [8]): 100; Plant response rating (0 to 100), Galium (galium; [9]): 50; Plant response rating, Galium (galium; [10]): 85; Plant response rating, Galium (galium; [11]): 55; Plant response rating (0 to 100), Lambsquarters (lambsquarters [4]; [9]): 35; Plant response rating, Lambsquarters (lambsquarters [4]; [10]): 85; Plant response rating, Lambsquarters (lambsquarters [4]; [11]): 80; Plant response rating (0 to 100), Morningglory (morningglory; [9]): 75; Plant response rating, Morningglory (morningglory; [10]): 85; Plant response rating, Morningglory (morningglory; [11]): 80; Plant response rating (0 to 100), Kochia (kochia; [9]): 90; Plant response rating, Kochia (kochia; [10]): 100; Plant response rating, Kochia (kochia; [11]): 95

Question: For `FC(F)(F)Sc1cnn(-c2ccccc2Oc2ncc(Cl)cn2)c1` [Compound 132, 5-chloro-2-[2-[4-(trifluoromethylthio)-1H-pyrazol-1-yl]phenoxy]pyrimidine], which pest or weed control at 125 g/ha (pigweed [1]; Amaranthus retroflexus, pre-emergence, 125 g ai/ha, read-out: Plant response rating, Pigweed) is on record?
Answer: 100%

Question: And the pest or weed control at 500 g/ha (pigweed [1]; Amaranthus retroflexus, pre-emergence, 240 h, 500 g ai/ha, read-out: Pigweed plant response rating)?
Answer: 100%

Question: And the pest or weed control at 125 g/ha (giant foxtail; Setaria faberi, post-emergence, 240 h, 125 g ai/ha, read-out: Foxtail, Giant plant response rating)?
Answer: 60%

Question: And the pest or weed control at 500 g/ha (giant foxtail; Setaria faberi, post-emergence, 240 h, 500 g ai/ha, read-out: Plant response rating, Foxtail, Giant)?
Answer: 90%

Question: And the plant injury at 125 g/ha (corn; Zea mays, post-emergence, 240 h, 125 g ai/ha, read-out: Corn plant response rating)?
Answer: 20%

Question: And the Corn plant response rating (crop injury, 0 = no effect, 100 = complete kill) at 500 g/ha (corn; Zea mays, post-emergence, 240 h, 500 g ai/ha)?
Answer: 50%

Question: And the pest or weed control at 16 g/ha (lambsquarters [2]; Chenopodium album, pre-emergence, 16 g ai/ha, preemergence, scale 0 to 100 (0 no effect, 100 complete control), read-out: Lambsquarters plant response rating)?
Answer: 75%

Question: What about the pest or weed control at 62 g/ha (lambsquarters [2]; Chenopodium album, pre-emergence, 62 g ai/ha, preemergence, scale 0 (no effect) to 100 (complete control), read-out: Lambsquarters plant response rating) of the same molecule?
Answer: 100%

Question: And the pest or weed control at 125 g/ha (lambsquarters [2]; Chenopodium album, pre-emergence, 125 g ai/ha, preemergence, scale 0 (no effect) to 100 (complete control), read-out: Lambsquarters plant response rating)?
Answer: 100%

Question: What about the pest or weed control at 31 g/ha (lambsquarters [2]; Chenopodium album, pre-emergence, Preemergence, 31 g ai/ha, scale 0 to 100, 0 no effect, 100 complete control, read-out: Plant response rating, Lambsquarters) of the same molecule?
Answer: 55%

Question: And the pest or weed control at 16 g/ha (yellow nutsedge; Cyperus, pre-emergence, 16 g ai/ha, preemergence, scale 0 to 100 (0 no effect, 100 complete control), read-out: Nutsedge, Yellow plant response rating)?
Answer: 100%

Question: And the pest or weed control at 62 g/ha (yellow nutsedge; Cyperus, pre-emergence, 62 g ai/ha, preemergence, scale 0 (no effect) to 100 (complete control), read-out: Nutsedge, Yellow plant response rating)?
Answer: 15%

Question: And the pest or weed control at 125 g/ha (yellow nutsedge; Cyperus, pre-emergence, 125 g ai/ha, preemergence, scale 0 (no effect) to 100 (complete control), read-out: Nutsedge, Yellow plant response rating)?
Answer: 15%

Question: And the pest or weed control at 31 g/ha (yellow nutsedge; Cyperus, pre-emergence, Preemergence, 31 g ai/ha, scale 0 to 100, 0 no effect, 100 complete control, read-out: Plant response rating, Nutsedge, Yellow)?
Answer: 0%

Question: What about the pest or weed control at 16 g/ha (pigweed [3]; Amaranthus retroflexus, pre-emergence, 16 g ai/ha, preemergence, scale 0 to 100 (0 no effect, 100 complete control), read-out: Pigweed plant response rating) of the same molecule?
Answer: 30%

Question: What about the pest or weed control at 62 g/ha (pigweed [3]; Amaranthus retroflexus, pre-emergence, 62 g ai/ha, preemergence, scale 0 (no effect) to 100 (complete control), read-out: Pigweed plant response rating) of the same molecule?
Answer: 70%

Question: What about the pest or weed control at 125 g/ha (pigweed [3]; Amaranthus retroflexus, pre-emergence, 125 g ai/ha, preemergence, scale 0 (no effect) to 100 (complete control), read-out: Pigweed plant response rating) of the same molecule?
Answer: 100%

Question: What about the pest or weed control at 31 g/ha (pigweed [3]; Amaranthus retroflexus, pre-emergence, Preemergence, 31 g ai/ha, scale 0 to 100, 0 no effect, 100 complete control, read-out: Plant response rating, Pigweed) of the same molecule?
Answer: 45%

Question: And the pest or weed control at 16 g/ha (ragweed; Ambrosia artemisiifolia, pre-emergence, 16 g ai/ha, preemergence, scale 0 to 100 (0 no effect, 100 complete control), read-out: Ragweed plant response rating)?
Answer: 10%

Question: And the pest or weed control at 62 g/ha (ragweed; Ambrosia artemisiifolia, pre-emergence, 62 g ai/ha, preemergence, scale 0 (no effect) to 100 (complete control), read-out: Ragweed plant response rating)?
Answer: 40%

Question: And the pest or weed control at 125 g/ha (ragweed; Ambrosia artemisiifolia, pre-emergence, 125 g ai/ha, preemergence, scale 0 (no effect) to 100 (complete control), read-out: Ragweed plant response rating)?
Answer: 30%

Question: What about the pest or weed control at 31 g/ha (ragweed; Ambrosia artemisiifolia, pre-emergence, Preemergence, 31 g ai/ha, scale 0 to 100, 0 no effect, 100 complete control, read-out: Plant response rating, Ragweed) of the same molecule?
Answer: 10%

Question: What about the pest or weed control at 16 g/ha (waterhemp; Amaranthus tuberculatus, pre-emergence, 16 g ai/ha, preemergence, scale 0 to 100 (0 no effect, 100 complete control), read-out: Waterhemp plant response rating) of the same molecule?
Answer: 85%

Question: What about the pest or weed control at 62 g/ha (waterhemp; Amaranthus tuberculatus, pre-emergence, 62 g ai/ha, preemergence, scale 0 (no effect) to 100 (complete control), read-out: Waterhemp plant response rating) of the same molecule?
Answer: 100%

Question: What about the pest or weed control at 125 g/ha (waterhemp; Amaranthus tuberculatus, pre-emergence, 125 g ai/ha, preemergence, scale 0 (no effect) to 100 (complete control), read-out: Waterhemp plant response rating) of the same molecule?
Answer: 100%

Question: And the pest or weed control at 31 g/ha (waterhemp; Amaranthus tuberculatus, pre-emergence, Preemergence, 31 g ai/ha, scale 0 to 100, 0 no effect, 100 complete control, read-out: Plant response rating, Waterhemp)?
Answer: 98%

Question: And the pest or weed control at 16 g/ha (galium; Galium, post-emergence, 16 g ai/ha, postemergence, 0 is no effect, 100 is complete control, read-out: Plant response rating (0 to 100), Galium)?
Answer: 50%

Question: What about the pest or weed control at 125 g/ha (galium; Galium, post-emergence, 125 g ai/ha, postemergence, visual rating, scale 0 to 100 (0 no effect, 100 complete control), read-out: Plant response rating, Galium) of the same molecule?
Answer: 70%

Question: And the pest or weed control at 62 g/ha (galium; Galium, post-emergence, Postemergence, 62 g ai/ha, scale 0 to 100 (0 no effect, 100 complete control), read-out: Plant response rating, Galium)?
Answer: 65%

Question: And the pest or weed control at 16 g/ha (lambsquarters [4]; Chenopodium album, post-emergence, 16 g ai/ha, postemergence, 0 is no effect, 100 is complete control, read-out: Plant response rating (0 to 100), Lambsquarters)?
Answer: 10%

Question: What about the pest or weed control at 125 g/ha (lambsquarters [4]; Chenopodium album, post-emergence, 125 g ai/ha, postemergence, visual rating, scale 0 to 100 (0 no effect, 100 complete control), read-out: Plant response rating, Lambsquarters) of the same molecule?
Answer: 50%

Question: And the pest or weed control at 62 g/ha (lambsquarters [4]; Chenopodium album, post-emergence, Postemergence, 62 g ai/ha, scale 0 to 100 (0 no effect, 100 complete control), read-out: Plant response rating, Lambsquarters)?
Answer: 60%

Question: What about the pest or weed control at 16 g/ha (morningglory; Ipomoea, post-emergence, 16 g ai/ha, postemergence, 0 is no effect, 100 is complete control, read-out: Plant response rating (0 to 100), Morningglory) of the same molecule?
Answer: 10%

Question: And the pest or weed control at 125 g/ha (morningglory; Ipomoea, post-emergence, 125 g ai/ha, postemergence, visual rating, scale 0 to 100 (0 no effect, 100 complete control), read-out: Plant response rating, Morningglory)?
Answer: 65%

Question: What about the pest or weed control at 62 g/ha (morningglory; Ipomoea, post-emergence, Postemergence, 62 g ai/ha, scale 0 to 100 (0 no effect, 100 complete control), read-out: Plant response rating, Morningglory) of the same molecule?
Answer: 75%

Question: What about the pest or weed control at 16 g/ha (kochia; Bassia scoparia, post-emergence, 16 g ai/ha, postemergence, 0 is no effect, 100 is complete control, read-out: Plant response rating (0 to 100), Kochia) of the same molecule?
Answer: 10%

Question: And the pest or weed control at 125 g/ha (kochia; Bassia scoparia, post-emergence, 125 g ai/ha, postemergence, visual rating, scale 0 to 100 (0 no effect, 100 complete control), read-out: Plant response rating, Kochia)?
Answer: 95%

Question: What about the pest or weed control at 62 g/ha (kochia; Bassia scoparia, post-emergence, Postemergence, 62 g ai/ha, scale 0 to 100 (0 no effect, 100 complete control), read-out: Plant response rating, Kochia) of the same molecule?
Answer: 85%
